Measured values as given in ChEMBL document CHEMBL5725827, “2-pyridyloxy-3-ester-4-nitrile orexin receptor antagonists” (2017).

The compounds below were run against Orexin/Hypocretin receptor type 1 (Rattus norvegicus, UniProt P56718) (assay: Radioligand Binding Assay: Described in Bergman et. al. Bioorg. Med. Chem. Lett. 2008, 18, 1425-1430.).
Set-up: species or system Homo sapiens

Chain of Orexin/Hypocretin receptor type 1 (P56718 whole entry, looked up): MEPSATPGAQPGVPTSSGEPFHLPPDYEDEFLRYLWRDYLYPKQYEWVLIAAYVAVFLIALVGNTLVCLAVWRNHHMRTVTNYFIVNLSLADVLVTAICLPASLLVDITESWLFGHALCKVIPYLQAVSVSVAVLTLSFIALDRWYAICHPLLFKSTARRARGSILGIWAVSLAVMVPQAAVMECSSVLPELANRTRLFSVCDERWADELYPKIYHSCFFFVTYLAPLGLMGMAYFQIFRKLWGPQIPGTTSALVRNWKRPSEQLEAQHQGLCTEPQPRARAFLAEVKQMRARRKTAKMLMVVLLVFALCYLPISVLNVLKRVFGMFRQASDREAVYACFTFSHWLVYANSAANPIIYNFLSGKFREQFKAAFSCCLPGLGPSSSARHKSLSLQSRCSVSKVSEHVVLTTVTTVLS

| SMILES | Ki |
| --- | --- |
| COC(=O)c1c(C#N)ccnc1O[C@@H]1CC[C@@H](C)N(C(=O)c2ccccc2-n2nccn2)C1 | 56 nM |
| COC(=O)c1c(C#N)ccnc1O[C@@H]1CC[C@@H](C)N(C(=O)c2cc(F)ccc2-c2nc(C)no2)C1 | 153 nM |
| COC(=O)c1c(C#N)ccnc1O[C@@H]1CC[C@@H](C)N(C(=O)c2cccc(F)c2-c2noc(C)n2)C1 | 128 nM |
| COC(=O)c1c(C#N)ccnc1O[C@@H]1CC[C@@H](C)N(C(=O)c2cccc(F)c2-n2nccn2)C1 | 210 nM |
| COC(=O)c1c(C#N)ccnc1O[C@@H]1CC[C@@H](C)N(C(=O)c2ccccc2-c2nc(C)no2)C1 | 73.8 nM |
| COC(=O)c1c(C#N)ccnc1O[C@@H]1CC[C@@H](C)N(C(=O)c2cc(F)ccc2-c2ncccn2)C1 | 46 nM |
| COC(=O)c1c(C#N)ccnc1O[C@@H]1CC[C@@H](C)N(C(=O)c2ccc(F)cc2-c2nc(C)no2)C1 | 405 nM |
| COC(=O)c1c(C#N)ccnc1O[C@@H]1CC[C@@H](C)N(C(=O)c2ccc(F)cc2-c2ncccn2)C1 | 75.6 nM |
| COC(=O)c1c(C#N)ccnc1O[C@@H]1CC[C@@H](C)N(C(=O)c2cc(F)ccc2-n2nccn2)C1 | 144 nM |
| COC(=O)c1c(C#N)ccnc1O[C@@H]1CC[C@@H](C)N(C(=O)c2ccccc2-c2noc(C)n2)C1 | 86.6 nM |
| COC(=O)c1c(C#N)ccnc1O[C@@H]1CC[C@@H](C)N(C(=O)c2cc(C)ccc2-n2nccn2)C1 | 25.8 nM |
| COC(=O)c1c(C#N)ccnc1O[C@@H]1CC[C@@H](C)N(C(=O)c2ccc(F)cc2-n2nccn2)C1 | 175 nM |
| COC(=O)c1c(C#N)ccnc1O[C@@H]1CC[C@@H](C)N(C(=O)c2cc(F)ccc2-c2noc(C)n2)C1 | 117 nM |
| COC(=O)c1c(C#N)ccnc1O[C@@H]1CC[C@@H](C)N(C(=O)c2c(C)cccc2-n2nccn2)C1 | 37.1 nM |
| COC(=O)c1c(C#N)ccnc1O[C@@H]1CC[C@@H](C)N(C(=O)c2c(F)cccc2-n2nccn2)C1 | 63 nM |
